Measurements taken from ChEMBL document CHEMBL4177718, “Discovery of molecular mechanism of a clinical herbal formula upregulating serum HDL-c levels in treatment of metabolic syndrome by in vivo and computational studies” (2018).

Species on record: Rattus norvegicus
Experiment: Up-regulation of ABCA1 protein expression in serum of Wistar rat model of metabolic syndrome fed with high-sugar-fat-diet for 15 weeks followed by high-fat emulsion for 2 weeks by ELISA
Type: functional

**Q.** For `COc1cc(N)ccc1C(=O)/C=C/c1ccc(C)s1`, which “fold change (FC)” value is on record?
**A.** Its value is 1.5.

**Q.** With `CCc1ccc(/C=C/C(=O)c2ccc(N)cc2O)cc1` as the compound, how does the “fold change (FC)” value read?
**A.** The value was 1.73.

**Q.** How did the “fold change (FC)” value turn out when `Nc1ccc(C(=O)/C=C/c2ccc(-c3ccccc3)cc2)c(O)c1` was run?
**A.** The value was 1.55.

**Q.** With `Nc1ccc(C(=O)/C=C/c2cccc(Oc3ccccc3)c2)c(O)c1` as the compound, how does the “fold change (FC)” value read?
**A.** The value was 1.76.

**Q.** For `COc1ccc(-c2ccc(/C=C/C(=O)c3ccc(N)cc3O)s2)cc1`, which “fold change (FC)” value is on record?
**A.** Its value is 1.09.

**Q.** `Nc1ccc(C(=O)/C=C/c2csc3ccccc23)c(O)c1` was tested. Which “fold change (FC)” value did it give?
**A.** The value was 2.31.

**Q.** Which “fold change (FC)” value does the source give for `Nc1ccc(C(=O)/C=C/c2c[nH]c3ccccc23)c(O)c1` here?
**A.** Its value is 1.76.

**Q.** `Nc1ccc(C(=O)/C=C/c2ccc3ccccc3c2)c(O)c1` was tested. Which “fold change (FC)” value did it give?
**A.** Its value is 2.64.

**Q.** Which “fold change (FC)” value does the source give for `Nc1ccc(C(=O)/C=C/c2ccc3c(c2)OCO3)c(O)c1` here?
**A.** Its value is 1.92.

**Q.** For `Cc1ccc(CCC(=O)c2ccc(N)cc2O)o1`, which “fold change (FC)” value is on record?
**A.** Its value is 1.9.

**Q.** How did the “fold change (FC)” value turn out when `Nc1ccc(C(=O)CCc2ccc3ccccc3c2)c(O)c1` was run?
**A.** The value was 1.34.

**Q.** For `COc1cc(N(C)C)ccc1C(=O)/C=C/c1ccc(C)o1`, which “fold change (FC)” value is on record?
**A.** The value was 1.57.

**Q.** How did the “fold change (FC)” value turn out when `COc1cc(N(C)C)ccc1C(=O)/C=C/c1ccc2ccccc2c1` was run?
**A.** Its value is 1.35.

**Q.** `COc1cc(N)ccc1C(=O)/C=C/c1ccc2ccccc2c1` was tested. Which “fold change (FC)” value did it give?
**A.** The value was 0.88.

**Q.** For `COc1cc(N)ccc1C(=O)/C=C/c1ccc(C)o1`, which “fold change (FC)” value is on record?
**A.** Its value is 1.2.

**Q.** With `CCOc1ccc(/C=C/C(=O)c2ccc(N)cc2OC)cc1` as the compound, how does the “fold change (FC)” value read?
**A.** Its value is 1.06.

**Q.** Which “fold change (FC)” value does the source give for `Cc1ccc(/C=C/C(=O)c2ccc(N(C)C)cc2O)o1` here?
**A.** The value was 1.02.

**Q.** How did the “fold change (FC)” value turn out when `CC(=O)Nc1ccc(C(=O)/C=C/c2ccc(C)s2)c(O)c1` was run?
**A.** Its value is 1.08.

**Q.** With `O=c1cc(-c2c[nH]c3ccccc23)oc2cc(O)ccc12` as the compound, how does the “fold change (FC)” value read?
**A.** Its value is 1.9.

**Q.** With `O=c1cc(-c2csc3ccccc23)oc2cc(O)ccc12` as the compound, how does the “fold change (FC)” value read?
**A.** The value was 1.44.

**Q.** With `O=C(O)c1ccc(-c2cc(=O)c3ccc(O)cc3o2)cc1` as the compound, how does the “fold change (FC)” value read?
**A.** The value was 1.66.

**Q.** For `CC(C)c1ccc(-c2cc(=O)c3ccc(O)cc3o2)cc1`, which “fold change (FC)” value is on record?
**A.** Its value is 1.22.

**Q.** For `O=c1cc(-c2cccc(Oc3ccccc3)c2)oc2cc(O)ccc12`, which “fold change (FC)” value is on record?
**A.** Its value is 1.17.

**Q.** `O=c1cc(-c2ccc(-c3ccccc3)cc2)oc2cc(O)ccc12` was tested. Which “fold change (FC)” value did it give?
**A.** Its value is 1.15.

**Q.** `COc1ccc(-c2ccc(-c3cc(=O)c4ccc(O)cc4o3)s2)cc1` was tested. Which “fold change (FC)” value did it give?
**A.** The value was 1.03.

**Q.** Which “fold change (FC)” value does the source give for `Cc1ccc(-c2cc(=O)c3ccc(N)cc3o2)o1` here?
**A.** Its value is 1.3.

**Q.** For `Cc1ccc(-c2cc(=O)c3ccc(N)cc3o2)s1`, which “fold change (FC)” value is on record?
**A.** The value was 1.47.

**Q.** Which “fold change (FC)” value does the source give for `CCOc1ccc(-c2cc(=O)c3ccc(N)cc3o2)cc1` here?
**A.** The value was 1.37.

**Q.** Which “fold change (FC)” value does the source give for `Cc1ccc(/C=C/C(=O)c2ccc(N)cc2O)o1` here?
**A.** Its value is 2.09.

**Q.** `Cc1ccc(/C=C/C(=O)c2ccc(N)cc2O)s1` was tested. Which “fold change (FC)” value did it give?
**A.** The value was 2.

**Q.** How did the “fold change (FC)” value turn out when `CCOc1ccc(/C=C/C(=O)c2ccc(N)cc2O)cc1` was run?
**A.** The value was 1.92.

**Q.** Which “fold change (FC)” value does the source give for `CSc1ccc(/C=C/C(=O)c2ccc(N)cc2O)cc1` here?
**A.** Its value is 1.26.

**Q.** With `COc1cccc(/C=C/C(=O)c2ccc(N)cc2O)c1` as the compound, how does the “fold change (FC)” value read?
**A.** The value was 2.09.

**Q.** With `Nc1ccc(C(=O)/C=C/c2ccc(F)cc2)c(O)c1` as the compound, how does the “fold change (FC)” value read?
**A.** The value was 1.36.

**Q.** For `Nc1ccc(C(=O)/C=C/c2ccc(Cl)cc2)c(O)c1`, which “fold change (FC)” value is on record?
**A.** The value was 1.16.

**Q.** For `Nc1ccc(C(=O)/C=C/c2cc(C(F)(F)F)cc(C(F)(F)F)c2)c(O)c1`, which “fold change (FC)” value is on record?
**A.** The value was 1.12.

**Q.** How did the “fold change (FC)” value turn out when `COc1cc(/C=C/C(=O)c2ccc(N)cc2O)cc(OC)c1OC` was run?
**A.** The value was 0.98.

**Q.** How did the “fold change (FC)” value turn out when `CC(C)c1ccc(/C=C/C(=O)c2ccc(N)cc2O)cc1` was run?
**A.** Its value is 2.05.

**Q.** For `O=c1cc(-c2ccc3ccccc3n2)oc2cc(O)ccc12`, which “fold change (FC)” value is on record?
**A.** Its value is 1.36.

**Q.** How did the “fold change (FC)” value turn out when `O=c1cc(-c2ccc3ccccc3c2)oc2cc(O)ccc12` was run?
**A.** Its value is 1.57.

**Q.** Which “fold change (FC)” value does the source give for `COc1ccc(/C=C/C(=O)c2ccc(N)cc2O)cc1OC` here?
**A.** The value was 1.86.
